From patent publication US8173689B2 (Novartis AG, priority 2006, dated 2012)
Where two headings read alike, the source gives them in different places.

Tests used:
[1] = test system: MNFS60 (murine AML cells); assay: Cell viability assay in MCSF dependent MNFS60 cells (Cell Titer Glo); type: cell-based; details: Mus musculus, tested at about 1 μM, read-out: M-NFS-60 CP percent inhibition
Procedure, shortened: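 Cells are cultured with 10 ng/ml MCSF and test compound for 72 hrs at 37° C. in 5% CO2. CellTiter-Glo reagent is then added to gauge viable cell number, and EC50s are fitted from triplicates.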

kinase domain of PDGFRβ = target: T1, kinase domain of PDGFRβ (Homo sapiens, UniProt P09619); assay: Inhibition of PDGFRb kinase signaling in an in vitro biochemical assay (alphascreen); details: tested at about 1 μM, read-out: PDGFRβ percent inhibition
T1 construct: The kinase domain of PDGFRβ was assayed in 50 mM Hepes; purchased Invitrogen P3082
T1 sequence (P09619 600-962 limits assumed): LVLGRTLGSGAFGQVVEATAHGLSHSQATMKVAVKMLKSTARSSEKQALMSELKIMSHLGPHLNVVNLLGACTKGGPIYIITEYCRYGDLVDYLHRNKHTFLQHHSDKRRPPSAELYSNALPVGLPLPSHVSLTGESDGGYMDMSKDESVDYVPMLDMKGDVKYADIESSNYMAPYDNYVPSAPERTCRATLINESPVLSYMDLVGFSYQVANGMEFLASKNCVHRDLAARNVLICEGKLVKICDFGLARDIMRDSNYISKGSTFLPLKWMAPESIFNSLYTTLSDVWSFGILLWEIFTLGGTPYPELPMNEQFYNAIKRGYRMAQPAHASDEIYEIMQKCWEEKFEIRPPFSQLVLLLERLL

[2] = target: T2, cytoplasmic domain of the human CSF-1R (Homo sapiens, UniProt P07333); assay: In vitro kinase assay for colony stimulating factor-1 receptor (AlphaScreen); type: biochemical; details: tested at about 1 μM, read-out: CSF-1R percent inhibition
T2 construct: Recombinant protein corresponding to the cytoplasmic domain of the human CSF-1R; purchased Invitrogen Corporation, Carlsbad, Calif; PV3249
T2 sequence (P07333 539-972 limits assumed): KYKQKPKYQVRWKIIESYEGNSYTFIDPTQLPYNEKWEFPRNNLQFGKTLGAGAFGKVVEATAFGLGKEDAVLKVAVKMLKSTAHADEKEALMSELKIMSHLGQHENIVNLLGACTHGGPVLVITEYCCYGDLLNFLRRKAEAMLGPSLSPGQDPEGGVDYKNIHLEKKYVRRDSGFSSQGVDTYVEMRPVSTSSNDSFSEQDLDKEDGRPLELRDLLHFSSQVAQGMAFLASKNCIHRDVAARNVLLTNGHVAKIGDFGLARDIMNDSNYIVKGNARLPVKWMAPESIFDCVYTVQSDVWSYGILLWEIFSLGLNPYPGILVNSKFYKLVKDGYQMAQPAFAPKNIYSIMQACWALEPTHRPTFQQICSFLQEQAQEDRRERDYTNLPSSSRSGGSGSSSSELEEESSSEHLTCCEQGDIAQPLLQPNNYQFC
Procedure, shortened: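 Kinase reaction used 4 nM recombinant cytoplasmic domain at 1 μM ATP in 50 mM Hepes pH 7.5 with 5 mM MgCl2, 10 mM MnCl2, 0.1% BSA, 1.0 mM DTT and 0.01% Tween 80. Compounds were serially diluted 3-fold from 25 μM. Phosphopeptide was detected by AlphaScreen, PT66 anti-phosphotyrosine acceptor plus streptavidin donor beads, read after overnight incubation.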

[3] = target: T3, full-length human CSF-1R receptor (Homo sapiens, UniProt P07333); assay: In vitro inhibition of CSF-1R receptor tyrosine phosphorylation in transfected HEK293H cells stimulated with MCSF; type: cell-based; details: HEK293-H, tested at about 1 μM, read-out: pCSF1R percent inhibition
T3 construct: transfected with the full-length human CSF-1R receptor cloned in house; expressed in transfected cells; host or cells: HEK293H (Invitrogen Cat. #11631017)
T3 sequence (P07333 20-972): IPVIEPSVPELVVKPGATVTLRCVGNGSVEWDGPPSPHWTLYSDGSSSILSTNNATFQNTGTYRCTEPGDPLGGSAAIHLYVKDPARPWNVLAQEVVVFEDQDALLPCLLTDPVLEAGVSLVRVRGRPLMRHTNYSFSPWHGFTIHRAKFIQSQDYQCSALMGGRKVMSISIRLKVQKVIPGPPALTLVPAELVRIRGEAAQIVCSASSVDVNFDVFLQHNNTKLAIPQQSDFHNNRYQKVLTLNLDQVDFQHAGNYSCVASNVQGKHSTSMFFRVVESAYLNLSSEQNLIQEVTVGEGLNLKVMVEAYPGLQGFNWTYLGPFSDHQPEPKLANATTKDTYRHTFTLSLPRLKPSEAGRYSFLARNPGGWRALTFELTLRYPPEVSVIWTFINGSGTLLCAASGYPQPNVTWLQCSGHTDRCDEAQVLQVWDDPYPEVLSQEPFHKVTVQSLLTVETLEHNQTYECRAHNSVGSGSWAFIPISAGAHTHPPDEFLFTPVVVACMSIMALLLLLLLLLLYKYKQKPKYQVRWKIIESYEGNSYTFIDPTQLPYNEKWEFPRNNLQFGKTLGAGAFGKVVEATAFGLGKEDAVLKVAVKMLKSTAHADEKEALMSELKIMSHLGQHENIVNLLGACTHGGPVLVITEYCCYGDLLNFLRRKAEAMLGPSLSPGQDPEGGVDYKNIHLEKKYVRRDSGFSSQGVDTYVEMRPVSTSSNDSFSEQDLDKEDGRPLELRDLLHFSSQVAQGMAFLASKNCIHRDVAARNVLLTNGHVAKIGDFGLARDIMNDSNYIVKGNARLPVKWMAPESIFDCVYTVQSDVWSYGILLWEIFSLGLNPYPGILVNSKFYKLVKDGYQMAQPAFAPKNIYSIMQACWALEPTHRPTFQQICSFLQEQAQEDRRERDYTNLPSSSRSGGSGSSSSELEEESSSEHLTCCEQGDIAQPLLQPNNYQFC
Procedure: The lysate was then transferred to total CSF-1R antibody coated 96-well plates that had already been blocked with 3% Blocker A from Mesoscale discovery (MSD) for 2 hours and washed afterwards. Lysates were incubated overnight at 4° C. and the plates were then washed 4× with MSD Tris Wash Buffer. […] The plates were read on the Sector 6000 instrument (MSD). Raw data was imported in Abase and EC50s calculated with XL-fit data analysis software.

kinase domain of cKIT = target: T4, kinase domain of cKIT (Homo sapiens, UniProt P10721); assay: Inhibition of cKIT kinase signaling in an in vitro biochemical assay (alphascreen); details: tested at about 1 μM, read-out: cKit percent inhibition
T4 construct: The kinase domain of cKIT was assayed in 50 mM Hepes; purchased Upstate 14-559
T4 sequence (P10721 589-937 limits assumed): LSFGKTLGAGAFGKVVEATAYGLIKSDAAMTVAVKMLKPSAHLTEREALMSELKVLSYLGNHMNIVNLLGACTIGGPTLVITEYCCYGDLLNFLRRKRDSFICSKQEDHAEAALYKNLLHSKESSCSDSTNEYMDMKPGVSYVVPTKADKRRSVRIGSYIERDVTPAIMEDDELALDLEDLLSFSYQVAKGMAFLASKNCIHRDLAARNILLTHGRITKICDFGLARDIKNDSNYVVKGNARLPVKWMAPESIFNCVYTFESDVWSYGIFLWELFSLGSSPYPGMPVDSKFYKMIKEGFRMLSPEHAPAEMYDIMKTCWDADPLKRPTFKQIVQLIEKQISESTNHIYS

| SMILES | inhibition at 1 µM ([1]; compounds of Table 3) | inhibition at 1 µM (kinase domain of PDGFRβ; compounds of Table 3) | inhibition at 1 µM ([2]; compounds of Table 3) | inhibition at 1 µM ([3]; compounds of Table 3) | inhibition at 1 µM (kinase domain of cKIT; compounds of Table 3) | inhibition at 1 µM (kinase domain of PDGFRβ) | inhibition at 1 µM [2] | inhibition at 1 µM ([3]; HEK293H cells) | inhibition at 1 µM (kinase domain of cKIT) | other results |
| --- | --- | --- | --- | --- | --- | --- | --- | --- | --- | --- |
| O[C@@H]1CCCC[C@H]1Nc1nc2ccc(Oc3ccnc(-n4ccnc4)c3)cc2s1 [Example 262, (1R,2R)-2-(6-(2-(1H-imidazol-1-yl)pyridin-4-yloxy)benzo[d]thiazol-2-ylamino)cyclohexanol] | 46% | 3% | 100% | 48% | 20% | – | – | – | – | – |
| Cc1c[nH]c(-c2cc(Oc3ccc4nc(N[C@@H](C)C5CCCCC5)sc4c3)ccn2)n1 [Example 268, (S)-N-(1-cyclohexylethyl)-6-(2-(4-methyl-1H-imidazol-2-yl)pyridin-4-yloxy)benzo[d]thiazol-2-amine] | 84% | 29% | 100% | 87% | 25% | – | – | – | – | – |
| CNC(=O)c1cc(Oc2ccc3nc(NCc4cccc5c4OCCCO5)oc3c2)ccn1 [Compound 108, 4-{2-[(3,4-Dihydro-2H-benzo[b][1,4]dioxepin-6-ylmethyl)-amino]-benzooxazol-6-yloxy}-pyridine-2-carboxylic acid methylamide] | – | – | – | – | – | 40% | 99% | 98% | 100% | inhibition at 1 µM ([1]; MNFS60 cells): 100% |
| O[C@@H]1CCCC[C@H]1Nc1nc2ccc(Oc3ccnc(-c4nc5c([nH]4)CCCC5)c3)cc2s1 [Example 258, (1R,2R)-2-(6-(2-(4,5,6,7-tetrahydro-1H-benzo[d]imidazol-2-yl)pyridin-4-yloxy)benzo[d]thiazol-2-ylamino)cyclohexanol] | 100% | 62% | 100% | 99% | 44% | – | – | – | – | – |
| CC(C)[C@@H](CO)Nc1nc2ccc(Oc3ccnc4ccccc34)cc2s1 [Example 244, (S)-3-methyl-2-(6-(quinolin-4-yloxy)benzo[d]thiazol-2-ylamino)butan-1-ol] | 67% | 35% | 100% | 85% | 25% | – | – | – | – | – |
| CNC(=O)c1cc(Oc2ccc3nc(N[C@H]4C[C@H]4c4ccccc4)sc3c2)ccn1 [Example 318, N-methyl-4-(2-((1S,2S)-2-phenylcyclopropylamino)benzo[d]thiazol-6-yloxy)picolinamide] | – | – | – | – | – | 13% | 100% | 78% | 47% | inhibition at 1 µM ([1]; MCSF dependent MNFS60 cells): 24% |
| CNC(=O)c1cc(Oc2ccc3nc(Nc4cccc(OC)c4)sc3c2)ccn1 [Compound 32] | 65% | 11% | 100% | 93% | 45% | – | – | – | – | – |
| Cn1cc(-c2cc(Oc3ccc4nc(N[C@H]5CCCc6ccccc65)sc4c3)ccn2)cn1 [Example 362, (S)-6-(2-(1-methyl-1H-pyrazol-4-yl)pyridin-4-yloxy)-N-(1,2,3,4-tetrahydronaphthalen-1-yl)benzo[d]thiazol-2-amine] | – | – | – | – | – | 92% | 100% | 100% | 99% | inhibition at 1 µM ([1]; MCSF dependent MNFS60 cells): 100% |
| N#Cc1ccc2nccc(Oc3ccc4nc(N[C@@H]5CCCC[C@H]5O)sc4c3)c2c1 [Example 220, 4-(2-((1R,2R)-2-hydroxycyclohexylamino)benzo[d]thiazol-6-yloxy)quinolin-6-carbonitrile] | 84% | 65% | 100% | 91% | 48% | – | – | – | – | – |
| CNC(=O)c1cc(Oc2ccc3nc(NC[C@@H](O)c4ccccc4)sc3c2)ccn1 [Compound 145] | 58% | 33% | 100% | 86% | 39% | – | – | – | – | – |
| Cn1cc(-c2cc(Oc3ccc4nc(N[C@@H](CO)C5CCCCC5)sc4c3)ccn2)cn1 [Example 347, (R)-2-cyclohexyl-2-(6-(2-(1-methyl-1H-pyrazol-4-yl)pyridin-4-yloxy)benzo[d]thiazol-2-ylamino)ethanol] | – | – | – | – | – | 58% | 100% | 99% | 37% | inhibition at 1 µM ([1]; MCSF dependent MNFS60 cells): 100% |
| CNC(=O)c1cc(Oc2ccc3nc(N[C@@H]4c5ccccc5C[C@@H]4O)oc3c2)ccn1 [Compound 50, 4-[2-((1R,2S)-2-Hydroxy-indan-1-ylamino)-benzooxazol-6-yloxy]-pyridine-2-carboxylic acid methylamide] | 18% | 14% | 99% | – | 13% | 8% | 56% | – | 59% | inhibition at 1 µM ([1]; compounds of Table 4): 100%; inhibition at 1 µM (kinase domain of PDGFRβ; compounds of Table 4): 14%; inhibition at 1 µM ([2]; compounds of Table 4): 100%; inhibition at 1 µM ([3]; compounds of Table 4): 99%; inhibition at 1 µM (kinase domain of cKIT; compounds of Table 4): 10% |
| O[C@@H]1CCCC[C@H]1Nc1nc2ccc(Oc3ccnc(-c4ccnc(F)c4)c3)cc2s1 [Cmpd 171, (1R,2R)-2-(6-(2'-fluoro-2,4'-bipyridin-4-yloxy)benzo[d]thiazol-2-ylamino)cyclohexanol] | 96% | 18% | 100% | 95% | 25% | – | – | – | – | – |
| CCc1[nH]c(-c2cc(Oc3ccc4nc(N[C@@H]5CCCC[C@H]5O)sc4c3)ccn2)nc1C [Cmpd 162, (1R,2R)-2-(6-(2-(5-ethyl-4-methyl-1H-imidazol-2-yl)pyridin-4-yloxy)benzo[d]thiazol-2-ylamino)cyclohexanol] | 100% | 30% | 100% | 99% | 20% | – | – | – | – | – |
| CNC(=O)c1cc(Oc2ccc3nc(NC4CCCC(O)C4)sc3c2)ccn1 (stereo not shown) [Example 293, 4-(2-(3-hydroxycyclohexylamino)benzo[d]thiazol-6-yloxy)-N-methylpicolinamide] | 67% | 0% | 100% | 82% | 22% | – | – | – | – | – |
| CN1CCN(c2ccc(-c3cc(Oc4ccc5nc(N[C@@H]6CCCC[C@H]6O)sc5c4)ccn3)cn2)CC1 [Cmpd 164, (1R,2R)-2-(6-(6'-(4-methylpiperazin-1-yl)-2,3'-bipyridin-4-yloxy)benzo[d]thiazol-2-ylamino)cyclohexanol] | 100% | 87% | 100% | 100% | 79% | – | – | – | – | – |
| CNC(=O)c1cc(Oc2ccc3nc(NCc4cccc5c4OCCO5)sc3c2)ccn1 [Compound 152, 4-{2-[(2,3-Dihydro-benzo-[1,4]dioxin-5-ylmethyl)-amino]-benzothiazol-6-yloxy}-pyridine-2-carboxylic acid methylamide] | – | – | – | – | – | 82% | 99% | 98% | 100% | inhibition at 1 µM ([1]; MNFS60 cells): 100% |
| CNC(=O)c1cc(Oc2ccc3nc(NCCc4ccccc4OC)sc3c2)ccn1 [Example 317, 4-(2-(2-methoxyphenylethylamino)benzo[d]thiazol-6-yloxy)-N-methylpicolinamide] | – | – | – | – | – | 12% | 100% | 95% | 70% | inhibition at 1 µM ([1]; MCSF dependent MNFS60 cells): 50% |
